Measurements reported in US10512667B2, “Compositions and methods for treating conditions related to adrenocortical activity and/or excessive steroid production” (The Regents of the University of Michigan, priority 2017, dated 2019).
Entries after “also recorded” stand apart in the source; their conditions may differ.

Experiments:
[1] = test system: H295R cells; assay: Cholesterol efflux into serum-free medium with apoA1; type: cell-based; details: serum-free medium containing apoA-I, 4 h
Protocol: Cholesterol efflux was measured by replacing the culture medium with serum-free medium supplemented with 5 μg/ml apoA1 (Sigma) and the indicated compounds. After the indicated time, the serum-free medium was collected, and the cholesterol concentration was measured using the fluorometric enzyme-linked assay (Cayman Chemical).
After 48 h, the medium was removed and replaced with 50 μl serum-free medium supplemented with 5 μg/mL apoA1. After the indicated time, the supernatant containing the effluxed cholesterol, was transferred to a new 96-well plate. A cholesterol detection reagent (Cayman Chemical) consisting of cholesterol assay buffer, cholesterol assay detector (10-acetyl-3,7-dihydroxyphenoxazine [ADHP]), horseradish peroxidase, cholesterol oxidase, and cholesterol esterase was added, and the reactions were incubated for 30 min at 37 C. The fluorescence intensities were measured using ex. […] 590 nm. The cholesterol concentrations were calculated by interpolation between the values produced by cholesterol standards that were analyzed in parallel.

[2] = test system: H295R cells; assay: Cellular ATP level (CellTiter-Glo); details: for ATP level, compound alone: H295R cells, serum-containing medium;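 for all read-outs here: ATP quantified by luminescence after lysing the cells in CellTiter-Glo reagent, with compound exposure at 37 °C under 5% CO2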
Protocol: (§8) The ATP levels of cells were measured by lysis in CellTiter-Glo reagent (Promega), and measurement of the luminescence.
(§9) After 48 h, 20-80 μl of medium was removed from each well and replaced with 20 μl of each compound diluted to 6× of the final concentration in the culture medium to produce a final volume of 120 μl. The cells were incubated at 37 C in 5% CO2 atmosphere for a time ranging from 15 min to 24 h. The medium was removed and immediately replaced with 50 μl of CellTiter-Glo luminescence cell viability assay reagent (Promega). The cells were lysed by agitation at room temperature for 20 min in the dark. The luminescence was measured using a SpectraMax M5 microplate reader (Molecular Devices) with a 0.5 s acquisition time. The luminescence (RLU) values for control cells ranged from 5000 to 20000 RLU in all experiments, and were scaled by a factor of 0.001 to plot all graphs.

[3] = test system: H295R cells; assay: Caspase 3/7 activity (Apo-ONE); type: cell-based; details: for caspase 3/7 activity, compound alone: serum-containing medium
Protocol: (§1) The samples were incubated for 18 h at room temperature in the dark. The fluorescence was measured using a SpectraMax M5 microplate reader with a 0.5 s acquisition time.

[4] = test system: BD140C cells; assay: Caspase 3/7 activity (Apo-ONE); type: cell-based
Protocol: as §1

[5] = test system: BD140C cells; assay: Cellular ATP level (CellTiter-Glo); type: cell-based
Protocol: as §8, §9

[6] = test system: H295R cells; assay: Cortisol secretion (indirect ELISA); type: cell-based
Protocol: Cortisol secretion was measured by replacing the culture medium with fresh medium containing the indicated compounds. The medium was collected at the indicated times. The cortisol concentration in the medium was measured using indirect ELISA (Arbor Assays).
After 48 h, the medium was removed and replaced with 50 μl of fresh medium. After the indicated incubation time, aliquots of the supernatant ranging from 0.5 to 10 μl were diluted in 50 μl of medium were used to measure the amount of cortisol secreted. Cortisol detection and quantification were performed by indirect ELISA according to the manufacturer's protocol (Arbor Assays #K003).

[7] = test system: H295R cells; assay: Visualization of cholesterol levels by filipin III binding; type: cell-based; details: for cholesterol level / accumulation (filipin III binding), compound alone: serum-containing medium
Protocol: (§2) The cells were seeded in 96-well ibiTreat μ-Plates and allowed to adhere for 48 h prior to the start of each experiment. Cholesterol was detected in fixed cells by incubating with 100 μg/ml filipin III at 37 C for 2 h. […] Images were captured using either a 4× or a 60× objective. Cholesterol esterification was visualized by culturing the cells with 1 μM NBD-cholesterol for 2 h following incubation with the indicated compounds. […] Images were captured using either a 20× or a 60× objective.
(§3) The medium was removed and immediately replaced with 100 μl of 4% paraformaldehyde and the cells were fixed at room temperature for 20 min. The cells were washed twice with 200 μl PBS. […] The fixed cells were incubated with filipin III at 37 C in the dark for 2 h.

[8] = test system: BD140C cells; assay: as above; type: cell-based; details: 4 h
Protocol: as §2, §3

[9] = test system: ACAT; details: cited from earlier work
[10] = test system: CHOP; assay: Transcript measurement by qPCR in H295R cells; type: cell-based; details: 4 h
Protocol: (§4) mRNA was isolated (Qiagen), and was reverse transcribed using the Transcriptor First Strand cDNA synthesis kit (Roche). The relative amounts of cDNAs corresponding to the indicated transcripts were quantified using qPCR assays with specific primers (Table 2).
(§5) H295R cells were seeded in 6-well tissue culture plates (Corning #3506) at a density of 5 X105 per well. After 48 h, the compound(s) indicated were added, and the cells were cultured for the indicated time. The cells were harvested in 1.35 ml culture medium with trypsin. The cells were collected by centrifugation and lysed in 350 μl of RLT buffer (Qiagen) with β-mercaptoethanol. mRNA extraction and DNase treatment were performed according to the manufacturer's protocol (Qiagen). All RNA samples had 260/280 ratios greater than 1.5. The same amount of RNA ranging from 0.1 to 0.5 μg was used for reverse transcription using the Roche Transcriptor First Strand cDNA synthesis kit (Roche #04897030001) using the manufacturer's protocol. SYBR Green I-based real-time qPCR assays were performed using a Roche LightCycler480 instrument. The levels of transcripts in different samples were normalized by the levels of RPL9 transcripts.

[11] = test system: ABCG1; assay: Transcript measurement by qPCR in H295R cells; type: cell-based; details: 4 h, hydrochloride
Protocol: as §4, §5

[12] = test system: ABCA1; assay: Transcript measurement by qPCR in H295R cells; type: cell-based; details: 4 h, hydrochloride
Protocol: as §4, §5

[13] = test system: adrenal cortex; details: in vivo; cited from earlier work
[14] = test system: H295R cells; assay: Visualization of NBD-cholesterol esterification; type: cell-based
Protocol: (§6) The cells were seeded in 96-well ibiTreat μ-Plates and allowed to adhere for 48 h prior to the start of each experiment. Cholesterol was detected in fixed cells by incubating with 100 μg/ml filipin III at 37 C for 2 h. The bound filipin III was imaged by fluorescence microscopy using 377/11 nm excitation and 447/60 nm emission wavelengths. Images were captured using either a 4× or a 60× objective. Cholesterol esterification was visualized by culturing the cells with 1 μM NBD-cholesterol for 2 h following incubation with the indicated compounds. NBD-cholesterol esters were imaged by fluorescence microscopy using 485/20 nm excitation wavelengths. Images were captured using either a 20× or a 60× objective.
(§7) The cells were seeded in 96-well ibiTreat μ-Plates (Ibidi) in 100 μl at a density of 50,000 cells per well. […] 5 μl of NBD-cholesterol was added to each well to produce a final concentration of 1 μM. When NBD-cholesterol is esterified and localized to cytoplasmic lipid droplets, it produces bright fluorescent foci in the cell. The inhibition of ACAT activity prevents fluorescent focus formation by NBD-cholesterol (see, e.g., Lada, et al., 2004 J Lipid Res, 45, 378-86). After 1.5 h, 5 μl of Hoechst 33342 was added to each well to produce a final concentration of 3 μg/ml. After 30 min, the medium was replaced with fresh medium. NBD-cholesterol esterification was visualized by fluorescence microscopy using either 485/20 nm (NBD) or 387/11 nm (Hoechst) excitation wavelengths and images were captured using either a 60× oil objective or a 20× objective.

[15] = test system: BD140C cells; assay: Visualization of NBD-cholesterol esterification; type: cell-based; details: compound 2 h then 2 h with NBD-cholesterol
Protocol: as §6, §7

[16] = test system: H295R cells; assay: Cholesterol crystallization and extracellular cholesterol associated with cells; type: cell-based
Protocol: To quantify cholesterol crystallization, experiments were conducted that measured the total extracellular cholesterol that was associated with the cells. After culturing cells with the indicated compounds, the culture medium was removed. Medium lacking cholesterol was added to the cells, and the extracellular cholesterol that was released into the wash medium was collected after 30 seconds. To establish if the cholesterol that was released from the cells was exported by ABCA1, the wash step was performed in parallel using media with and without 50 μM glibenclamide, which inhibits ABCA1 activity. The total amount of cell-associated cholesterol that was released into the wash medium was measured using a fluorometric enzyme-linked assay (Cayman Chemical). Cholesterol esters were hydrolyzed using cholesterol esterase. Cholesterol was oxidized by cholesterol oxidase, producing hydrogen peroxide. The hydrogen peroxide was reacted with 10-acetyl-3,7-dihydroxyphenoxazine (ADHP) in the presence of horseradish peroxidase to produce resorufin. Resorufin fluorescence was measured using 555 nm exitation and 590 nm emission wavelengths in a SpectraMax M5 microplate reader (Molecular Devices).
The medium was removed and replaced with 50 μl serum-free medium supplemented with 5 μg/mL apo-AI (without or with 50 μM glyburide to detect ABCA1 transporter-dependent efflux) for either 30 sec or 1 h at 37 C in 5% CO2 atmosphere. After the indicated time, the supernatant, was transferred to a new 96-well plate and a fluorometric-base cholesterol detection assay cocktail was added.

[17] = test system: H295R cells; assay: Cell morphology by phase contrast microscopy; type: cell-based; details: 30 h
Protocol: FIG. 4E: […] The cells were cultured with DMSO vehicle (upper images) or with 40 μM ATR-101 (lower images) alone (left images), or in combination with 1.5 mM MβCD (middle images), or in combination with 40 μM cholesterol (right images). Cell morphology was visualized by phase contrast microscopy using a 10× objective. The images are representative of 5 fields under each set of culture conditions. The scale bars denote 100 μm.

[18] = H295R cells, serum-free, 50 μM each glibenclamide, benzamil, zosuquidar, 10 μM PD129337, 4 mM MβCD
[19] = H295R cells cultured with the compound together with ATR-101, 4 h
[20] = H295R cells cultured with the compound together with ATR-101, 24 h

## CC(C)c1cccc(C(C)C)c1NC(=O)NCC1(c2ccccc2)CCCC1.Cl [PD129337, N-(2,6-bis(1-methylethyl)phenyl)-N′-((1-(phenyl)cyclopentyl)methyl)urea hydrochloride]
[1]
  cholesterol efflux, compound alone: no detectable effect on cholesterol efflux
[2]; 4 h
  ATP level, compound alone: did not cause ATP depletion
[2]; 24 h, hydrochloride
  ATP level, compound alone: did not reduce the ATP level; also recorded: no detectable effect
[3]; H295R cells, 4 h
  caspase 3/7 activity, compound alone: did not cause ATP depletion or caspase activation
[3]; H295R cells, 24 h, hydrochloride
  caspase 3/7 activity, compound alone: did not reduce the ATP level or increase the caspase 3/7 activity; also recorded: no detectable effect
[3]; [18]
  caspase 3/7 activity with combinations of ABC transporter inhibitors: did not enhance ATP depletion or caspase 3/7 activation
[4]; 4 h
  caspase 3/7 activity, compound alone: did not cause ATP depletion or caspase activation
[4]; 24 h, hydrochloride
  caspase 3/7 activity, compound alone: did not reduce the ATP level or increase the caspase 3/7 activity; also recorded: no detectable effect
[5]; 4 h
  ATP level, compound alone: did not cause ATP depletion
[5]; 24 h, hydrochloride
  ATP level, compound alone: did not reduce the ATP level; also recorded: no detectable effect
[6]; cortisol in medium, 4 h or time course
  cortisol secretion, compound alone: did not reduce, but rather increased, cortisol secretion
[7]; H295R cells, up to 4 h
  cholesterol level / accumulation (filipin III binding), compound alone: did not cause cholesterol accumulation
[7]; [18]
  cholesterol level with combinations of ABC transporter inhibitors: further increased the cholesterol level
[8]
  cholesterol level / accumulation (filipin III binding), compound alone: did not cause cholesterol accumulation
[9]
  ACAT activity: inhibit ACAT activity
[10]
  CHOP transcript level: activated
[11]
  ABCG1 transcript level: inhibited; also recorded: equivalent effects
[12]
  ABCA1 transcript level: inhibited; also recorded: equivalent effects
[13]
  adrenalytic activity: only ATR-101 has adrenalytic activity
[14]; compound 2 h then 2 h with NBD-cholesterol, hydrochloride
  NBD-cholesterol esterification and accumulation in lipid droplets: inhibited cholesterol esterification more efficiently than ATR-101; also recorded: inhibited NBD-cholesterol accumulation more effectively than ATR-101; also recorded: eliminated both the intense foci and the diffuse fluorescence
[15]
  NBD-cholesterol esterification and accumulation in lipid droplets: inhibited NBD-cholesterol esterification

## CC(C)CCC[C@@H](C)[C@H]1CC[C@H]2[C@@H]3CC=C4C[C@@H](O)CC[C@]4(C)[C@H]3CC[C@]12C [cholesterol]
[2]; [19]
  effect on ATP depletion by ATR-101: partially restored the ATP level; also recorded: restored normal or nearly normal ATP levels; also recorded: reduced ATP depletion
[2]; [20]
  effect on ATP depletion by ATR-101: partially restored the ATP level; also recorded: inhibits ATP depletion by ATR-101
[2]; 4 h
  ATP level, compound alone: no detectable effect
[2]; 24 h
  ATP level, compound alone: no detectable effect
[3]; [19]
  effect on caspase 3/7 activation by ATR-101: did not affect caspase 3/7 activation
[3]; [20]
  effect on caspase 3/7 activation by ATR-101: reduced caspase activation
[3]; H295R cells, 4 h
  caspase 3/7 activity, compound alone: no detectable effect
[3]; H295R cells, 24 h
  caspase 3/7 activity, compound alone: no detectable effect
[6]; 40 μM of the compound together with ATR-101, 4 h
  effect on the inhibition of cortisol secretion by ATR-101: neither compound prevented the inhibition of cortisol secretion
[7]; H295R cells cultured with the compound together with ATR-101, 4 h or 24 h
  effect on cholesterol accumulation caused by ATR-101: lower cholesterol levels than cells that were cultured with ATR-101 alone; also recorded: prevented intracellular cholesterol accumulation; also recorded: did not have a higher level of filipin III binding to the plasma membrane
[7]; H295R cells, 24 h
  cholesterol level / accumulation (filipin III binding), compound alone: no detectable effect
[7]; H295R cells, up to 4 h
  cholesterol level / accumulation (filipin III binding), compound alone: no detectable effect
[16]; 4 h, 100 μM ATR-101 or 40 μM cholesterol
  total extracellular cholesterol associated with cells: increased the total extracellular cholesterol
[16]; compound in combination with ATR-101
  effect on cholesterol crystallization in cells cultured with ATR-101: produced more extracellular crystals; also recorded: increased the amount of extracellular cholesterol crystals
[14]; 40 μM exogenous cholesterol, 100 μM ATR-101
  effect of exogenous cholesterol on NBD-cholesterol esterification and on its inhibition by ATR-101: no significant difference
[17]; 40 μM ATR-101 with 1.5 mM MβCD or 40 μM cholesterol
  effect on the changes in cell morphology caused by ATR-101: remained flat and adherent for at least 30 h; also recorded: prevented
[17]; phase contrast
  cell morphology, compound alone: no detectable effect
